Results published in the NIST ThermoML archive (doi:10.1016/j.fluid.2006.06.006).
Several values for one entry are separate records, joined by “and”; a condition that tells them apart may be missing. Equal values may be shown once.

Experiment: excess molar enthalpy (molar enthalpy of mixing); xn = mol fraction of the nth substance listed
Conditions: Liquid

O=C=O [carbon dioxide] + O
Conditions	excess molar enthalpy
323.1 K, 2060 kPa, x1 = 0.0032	-0.0113 kcal/mol
323.1 K, 2060 kPa, x1 = 0.0037	-0.0131 kcal/mol
323.1 K, 2060 kPa, x1 = 0.004	-0.0138 kcal/mol
323.1 K, 2060 kPa, x1 = 0.0042	-0.0152 kcal/mol
323.1 K, 2060 kPa, x1 = 0.0048	-0.0168 kcal/mol
323.1 K, 2060 kPa, x1 = 0.0058	-0.0199 kcal/mol
323.1 K, 2060 kPa, x1 = 0.006	-0.022 kcal/mol
323.1 K, 2060 kPa, x1 = 0.0064	-0.0216 kcal/mol
323.1 K, 2060 kPa, x1 = 0.0079	-0.0221 kcal/mol and -0.0222 kcal/mol
323.1 K, 2060 kPa, x1 = 0.0106	-0.0228 kcal/mol
323.1 K, 2060 kPa, x1 = 0.0126	-0.0224 kcal/mol
323.1 K, 2060 kPa, x1 = 0.0158	-0.0228 kcal/mol
323.1 K, 2060 kPa, x1 = 0.021	-0.0223 kcal/mol
323.1 K, 2060 kPa, x1 = 0.0311	-0.0225 kcal/mol
323.1 K, 5100 kPa, x1 = 0.0052	-0.0162 kcal/mol
323.1 K, 5100 kPa, x1 = 0.0064	-0.02 kcal/mol
323.1 K, 5100 kPa, x1 = 0.0084	-0.0261 kcal/mol
323.1 K, 5100 kPa, x1 = 0.0092	-0.029 kcal/mol
323.1 K, 5100 kPa, x1 = 0.0101	-0.0323 kcal/mol
323.1 K, 5100 kPa, x1 = 0.0105	-0.0331 kcal/mol
323.1 K, 5100 kPa, x1 = 0.011	-0.0344 kcal/mol
323.1 K, 5100 kPa, x1 = 0.012	-0.0373 kcal/mol
323.1 K, 5100 kPa, x1 = 0.0125	-0.0394 kcal/mol
323.1 K, 5100 kPa, x1 = 0.0136	-0.0412 kcal/mol
323.1 K, 5100 kPa, x1 = 0.0138	-0.0417 kcal/mol
323.1 K, 5100 kPa, x1 = 0.0147	-0.0429 kcal/mol
323.1 K, 5100 kPa, x1 = 0.0151	-0.0441 kcal/mol
323.1 K, 5100 kPa, x1 = 0.0155	-0.0438 kcal/mol
323.1 K, 5100 kPa, x1 = 0.0156	-0.0448 kcal/mol
323.1 K, 5100 kPa, x1 = 0.0172	-0.0438 kcal/mol
323.1 K, 5100 kPa, x1 = 0.0181	-0.0441 kcal/mol
323.1 K, 5100 kPa, x1 = 0.019	-0.0454 kcal/mol
323.1 K, 5100 kPa, x1 = 0.0201	-0.0438 kcal/mol
323.1 K, 5100 kPa, x1 = 0.0208	-0.0453 kcal/mol
323.1 K, 5100 kPa, x1 = 0.0254	-0.0443 kcal/mol
323.1 K, 10530 kPa, x1 = 0.01	-0.0178 kcal/mol
323.1 K, 10530 kPa, x1 = 0.012	-0.0208 kcal/mol
323.1 K, 10530 kPa, x1 = 0.0132	-0.0243 kcal/mol
323.1 K, 10530 kPa, x1 = 0.0165	-0.0301 kcal/mol
323.1 K, 10530 kPa, x1 = 0.0197	-0.0321 kcal/mol
323.1 K, 10530 kPa, x1 = 0.023	-0.0348 kcal/mol
323.1 K, 10530 kPa, x1 = 0.0249	-0.0347 kcal/mol
323.1 K, 10530 kPa, x1 = 0.026	-0.037 kcal/mol
323.1 K, 10530 kPa, x1 = 0.0323	-0.0368 kcal/mol
323.1 K, 10530 kPa, x1 = 0.0324	-0.0368 kcal/mol
323.1 K, 10530 kPa, x1 = 0.0446	-0.0361 kcal/mol
323.1 K, 10530 kPa, x1 = 0.0508	-0.0359 kcal/mol
323.1 K, 10530 kPa, x1 = 0.0625	-0.0354 kcal/mol
323.1 K, 10530 kPa, x1 = 0.0627	-0.0356 kcal/mol
323.1 K, 14200 kPa, x1 = 0.0105	-0.0142 kcal/mol
323.1 K, 14200 kPa, x1 = 0.0125	-0.0168 kcal/mol
323.1 K, 14200 kPa, x1 = 0.0139	-0.0189 kcal/mol
323.1 K, 14200 kPa, x1 = 0.0173	-0.0225 kcal/mol
323.1 K, 14200 kPa, x1 = 0.0207	-0.025 kcal/mol
323.1 K, 14200 kPa, x1 = 0.0241	-0.0268 kcal/mol
323.1 K, 14200 kPa, x1 = 0.0248	-0.027 kcal/mol
323.1 K, 14200 kPa, x1 = 0.0261	-0.0277 kcal/mol
323.1 K, 14200 kPa, x1 = 0.0274	-0.0279 kcal/mol
323.1 K, 14200 kPa, x1 = 0.0287	-0.0288 kcal/mol
323.1 K, 14200 kPa, x1 = 0.0307	-0.029 kcal/mol
323.1 K, 14200 kPa, x1 = 0.034	-0.0284 kcal/mol
323.1 K, 14200 kPa, x1 = 0.047	-0.0283 kcal/mol
323.1 K, 14200 kPa, x1 = 0.0658	-0.0279 kcal/mol
323.1 K, 20200 kPa, x1 = 0.011	-0.0128 kcal/mol
323.1 K, 20200 kPa, x1 = 0.0147	-0.0167 kcal/mol
323.1 K, 20200 kPa, x1 = 0.0183	-0.0207 kcal/mol
323.1 K, 20200 kPa, x1 = 0.0197	-0.0216 kcal/mol
323.1 K, 20200 kPa, x1 = 0.021	-0.0236 kcal/mol
323.1 K, 20200 kPa, x1 = 0.0239	-0.0236 kcal/mol
323.1 K, 20200 kPa, x1 = 0.0253	-0.0238 kcal/mol
323.1 K, 20200 kPa, x1 = 0.0274	-0.0246 kcal/mol
323.1 K, 20200 kPa, x1 = 0.0288	-0.0248 kcal/mol
323.1 K, 20200 kPa, x1 = 0.0359	-0.0249 kcal/mol
323.1 K, 20200 kPa, x1 = 0.0427	-0.0252 kcal/mol
323.1 K, 20200 kPa, x1 = 0.0461	-0.0249 kcal/mol
323.1 K, 20200 kPa, x1 = 0.0494	-0.0251 kcal/mol
323.1 K, 20200 kPa, x1 = 0.0692	-0.0247 kcal/mol
373.1 K, 5050 kPa, x1 = 0.002	-0.00308 kcal/mol
373.1 K, 5050 kPa, x1 = 0.0025	-0.00418 kcal/mol
373.1 K, 5050 kPa, x1 = 0.003	-0.00476 kcal/mol
373.1 K, 5050 kPa, x1 = 0.004	-0.00614 kcal/mol
373.1 K, 5050 kPa, x1 = 0.0045	-0.00686 kcal/mol
373.1 K, 5050 kPa, x1 = 0.005	-0.00767 kcal/mol
373.1 K, 5050 kPa, x1 = 0.006	-0.00901 kcal/mol
373.1 K, 5050 kPa, x1 = 0.007	-0.01 kcal/mol
373.1 K, 5050 kPa, x1 = 0.0075	-0.0109 kcal/mol
373.1 K, 5050 kPa, x1 = 0.008	-0.0112 kcal/mol
373.1 K, 5050 kPa, x1 = 0.009	-0.0112 kcal/mol
373.1 K, 5050 kPa, x1 = 0.01	-0.0113 kcal/mol and -0.011 kcal/mol
373.1 K, 5050 kPa, x1 = 0.011	-0.0113 kcal/mol
373.1 K, 5050 kPa, x1 = 0.0125	-0.0109 kcal/mol
373.1 K, 5050 kPa, x1 = 0.014	-0.011 kcal/mol
373.1 K, 5050 kPa, x1 = 0.0149	-0.0103 kcal/mol
373.1 K, 5050 kPa, x1 = 0.0154	-0.0106 kcal/mol
373.1 K, 5050 kPa, x1 = 0.0174	-0.00997 kcal/mol
373.1 K, 5050 kPa, x1 = 0.0179	-0.0097 kcal/mol
373.1 K, 5050 kPa, x1 = 0.0198	-0.00939 kcal/mol
373.1 K, 10080 kPa, x1 = 0.0068	-0.00801 kcal/mol
373.1 K, 10080 kPa, x1 = 0.0081	-0.0088 kcal/mol
373.1 K, 10080 kPa, x1 = 0.0094	-0.0104 kcal/mol
373.1 K, 10080 kPa, x1 = 0.0101	-0.0114 kcal/mol
373.1 K, 10080 kPa, x1 = 0.0108	-0.0122 kcal/mol
373.1 K, 10080 kPa, x1 = 0.0134	-0.0147 kcal/mol
373.1 K, 10080 kPa, x1 = 0.0135	-0.0145 kcal/mol
373.1 K, 10080 kPa, x1 = 0.02	-0.0151 kcal/mol
373.1 K, 10080 kPa, x1 = 0.0201	-0.0148 kcal/mol
373.1 K, 10080 kPa, x1 = 0.0228	-0.0142 kcal/mol
373.1 K, 10080 kPa, x1 = 0.0263	-0.0141 kcal/mol
373.1 K, 10080 kPa, x1 = 0.0265	-0.0145 kcal/mol
373.1 K, 10080 kPa, x1 = 0.0294	-0.0134 kcal/mol
373.1 K, 10080 kPa, x1 = 0.039	-0.0134 kcal/mol
373.1 K, 10080 kPa, x1 = 0.0516	-0.0122 kcal/mol
373.1 K, 19500 kPa, x1 = 0.0037	-0.0016 kcal/mol
373.1 K, 19500 kPa, x1 = 0.0044	-0.00182 kcal/mol
373.1 K, 19500 kPa, x1 = 0.0051	-0.00198 kcal/mol
373.1 K, 19500 kPa, x1 = 0.0059	-0.00225 kcal/mol
373.1 K, 19500 kPa, x1 = 0.0066	-0.00251 kcal/mol
373.1 K, 19500 kPa, x1 = 0.0081	-0.00294 kcal/mol
373.1 K, 19500 kPa, x1 = 0.0087	-0.00335 kcal/mol
373.1 K, 19500 kPa, x1 = 0.0088	-0.00327 kcal/mol
373.1 K, 19500 kPa, x1 = 0.0095	-0.00337 kcal/mol
373.1 K, 19500 kPa, x1 = 0.011	-0.00411 kcal/mol
373.1 K, 19500 kPa, x1 = 0.0123	-0.00454 kcal/mol
373.1 K, 19500 kPa, x1 = 0.0145	-0.00464 kcal/mol
373.1 K, 19500 kPa, x1 = 0.0146	-0.00492 kcal/mol
373.1 K, 19500 kPa, x1 = 0.0159	-0.00504 kcal/mol
373.1 K, 19500 kPa, x1 = 0.0167	-0.00492 kcal/mol
373.1 K, 19500 kPa, x1 = 0.0181	-0.00554 kcal/mol
373.1 K, 19500 kPa, x1 = 0.0182	-0.00535 kcal/mol
373.1 K, 19500 kPa, x1 = 0.0195	-0.00564 kcal/mol
373.1 K, 19500 kPa, x1 = 0.0217	-0.0054 kcal/mol
373.1 K, 19500 kPa, x1 = 0.0218	-0.0054 kcal/mol
373.1 K, 19500 kPa, x1 = 0.0251	-0.00531 kcal/mol
373.1 K, 19500 kPa, x1 = 0.0253	-0.00538 kcal/mol
373.1 K, 19500 kPa, x1 = 0.0265	-0.00526 kcal/mol
373.1 K, 19500 kPa, x1 = 0.03	-0.00488 kcal/mol
373.1 K, 19500 kPa, x1 = 0.0521	-0.00258 kcal/mol
373.1 K, 19500 kPa, x1 = 0.0603	-0.00186 kcal/mol
373.1 K, 19500 kPa, x1 = 0.0688	-0.00086 kcal/mol
373.1 K, 19500 kPa, x1 = 0.0691	-0.00129 kcal/mol
373.1 K, 19500 kPa, x1 = 0.0771	-0.000478 kcal/mol
